Laboratory results as given in patent US20260042731A1, “(2,4-DICHLOROPHENOXY)ACETIC ACID ANALOGS” (CORTEVA AGRISCIENCE LLC, priority 2022, published 2026).
Where two headings read alike, the source gives them in different places.

Legend:
Assay type in all cases: in vivo
[1] = system: Ambrosia artemisiifolia (AMBEL), common ragweed; test: Postemergence herbicide evaluation, growth of Ambrosia artemisiifolia (AMBEL); settings: Ambrosia artemisiifolia, post-emergence, 504 h, 21 DAA, percent reduction in plant size relative to untreated control, read-out: AVE. AMBEL
[2] = system: glyphosate resistant Conyza canadensis (L.) (ERICA), horseweed; test: Postemergence herbicide evaluation, growth of Conyza canadensis (ERICA); settings: Erigeron canadensis, post-emergence, percent reduction in plant size relative to untreated control, read-out: Ave. ERICA; for pest or weed control at 280 g/ha: 280 g ae/ha; for pest or weed control at 560 g/ha: 560 g ae/ha
Velvetleaf (ABUTH) = test: Greenhouse post-emergence mixture trials, percent visual control; settings: ABUTH, 21 DAA; for pest or weed control at 560 g/ha / pest or weed control at 1120 g/ha: Abutilon theophrasti, post-emergence, 504 h; for pest or weed control at 560 g/ha: compound 560 g ae/ha; for pest or weed control at 1120 g/ha: compound 1120 g ae/ha, read-out: % Control
[3] = system: Chenopodium album (CHEAL), common lambsquarters; test: Postemergence herbicide evaluation, growth of Chenopodium album (CHEAL); settings: Chenopodium album, post-emergence, percent reduction in plant size relative to untreated control, read-out: Ave. CHEAL; for pest or weed control at 280 g/ha: 280 g ae/ha; for pest or weed control at 560 g/ha: 560 g ae/ha
Corn (ZEAMX) = test: Greenhouse post-emergence mixture trials, percent visual control; settings: ZEAMX, 21 DAA; for plant injury at 560 g/ha / plant injury at 1120 g/ha: Zea mays, post-emergence, 504 h; for plant injury at 560 g/ha: compound 560 g ae/ha
[4] = no mixing partner, Trial Bridge 3
[5] = Trial Bridge 1, mixing partner none
[6] = Trial Bridge 2, no mixing partner
[7] = compound 1120 g ae/ha, no mixing partner, Trial Bridge 3

For O=C(COc1ccc(Cl)cc1Cl)NOCc1ccccc1 [Compound D8, N-(Benzyloxy)-2-(2,4-dichlorophenoxy)acetamide], the pest or weed control at 280 g/ha ([1]; 280 g ae/ha) was 99%, the pest or weed control at 560 g/ha ([1]; 560 g ae/ha) was 99% and the pest or weed control at 280 g/ha ([2]; 168 h, 7 DAA) was 68%. The pest or weed control at 560 g/ha ([2]; 168 h, 7 DAA) was 70%, the pest or weed control at 280 g/ha ([2]; 336 h, 14 DAA) was 88% and the pest or weed control at 560 g/ha ([2]; 336 h, 14 DAA) was 85%. For the same molecule, the pest or weed control at 280 g/ha ([2]; 504 h, 21 DAA) was 95%, the pest or weed control at 560 g/ha ([2]; 504 h, 21 DAA) was 92% and the “% Control” value (Velvetleaf (ABUTH); compound 560 g ae/ha + Sulfentrazone 130 g ai/ha, Trial Bridge 3) was 100%. The “% Control” value (Velvetleaf (ABUTH); compound 1120 g ae/ha + Sulfentrazone 130 g ai/ha, Trial Bridge 3) was 100%, the “% Control” value (Velvetleaf (ABUTH); compound 1120 g ae/ha + Sulfentrazone 347 g ai/ha, Trial Bridge 3) was 100% and the pest or weed control at 560 g/ha (Velvetleaf (ABUTH); [4]) was 90%. The pest or weed control at 1120 g/ha (Velvetleaf (ABUTH); [4]) was 95%, the pest or weed control at 560 g/ha (Velvetleaf (ABUTH); [5]) was 100% and the pest or weed control at 1120 g/ha (Velvetleaf (ABUTH); [5]) was 100%. For the same molecule, the pest or weed control at 560 g/ha (Velvetleaf (ABUTH); [6]) was 100%, the pest or weed control at 1120 g/ha (Velvetleaf (ABUTH); [6]) was 100% and the “% Control” value (Velvetleaf (ABUTH); Trial Bridge 1, compound 560 g ae/ha + Arylex 5 g ai or ae/ha) was 100%. The “% Control” value (Velvetleaf (ABUTH); Trial Bridge 1, compound 560 g ae/ha + Glyphosate 1120 g ai or ae/ha) was 100%, the “% Control” value (Velvetleaf (ABUTH); Trial Bridge 1, compound 560 g ae/ha + Mesotrione 150 g ai or ae/ha) was 100% and the “% Control” value (Velvetleaf (ABUTH); Trial Bridge 1, compound 560 g ae/ha + diclosulam 35 g ai or ae/ha) was 100%. For the same molecule, the “% Control” value (Velvetleaf (ABUTH); Trial Bridge 1, compound 1120 g ae/ha + Arylex 5 g ai or ae/ha) was 100%, the “% Control” value (Velvetleaf (ABUTH); Trial Bridge 1, compound 1120 g ae/ha + Glufosinate 600 g ai or ae/ha) was 100% and the “% Control” value (Velvetleaf (ABUTH); Trial Bridge 1, compound 1120 g ae/ha + Glyphosate 1120 g ai or ae/ha) was 100%. The “% Control” value (Velvetleaf (ABUTH); Trial Bridge 1, compound 1120 g ae/ha + Mesotrione 150 g ai or ae/ha) was 100%, the “% Control” value (Velvetleaf (ABUTH); Trial Bridge 1, compound 1120 g ae/ha + diclosulam 35 g ai or ae/ha) was 100% and the “% Control” value (Velvetleaf (ABUTH); Trial Bridge 2, compound 560 g ae/ha + Saflufenacil 25 g ai or ae/ha) was 100%. The “% Control” value (Velvetleaf (ABUTH); Trial Bridge 2, compound 560 g ae/ha + Saflufenacil 75 g ai or ae/ha) was 100%, the “% Control” value (Velvetleaf (ABUTH); Trial Bridge 2, compound 560 g ae/ha + Trifludimoxazin 50 g ai or ae/ha) was 100% and the “% Control” value (Velvetleaf (ABUTH); Trial Bridge 2, compound 1120 g ae/ha + Saflufenacil 25 g ai or ae/ha) was 100%. The “% Control” value (Velvetleaf (ABUTH); Trial Bridge 2, compound 1120 g ae/ha + Saflufenacil 75 g ai or ae/ha) was 100%, the “% Control” value (Velvetleaf (ABUTH); Trial Bridge 2, compound 1120 g ae/ha + Trifludimoxazin 12.5 g ai or ae/ha) was 100% and the “% Control” value (Velvetleaf (ABUTH); Trial Bridge 2, compound 1120 g ae/ha + Trifludimoxazin 50 g ai or ae/ha) was 100%. The pest or weed control at 280 g/ha ([3]; 168 h, 7 DAA) was 63%, the pest or weed control at 560 g/ha ([3]; 168 h, 7 DAA) was 63% and the pest or weed control at 280 g/ha ([3]; 336 h, 14 DAA) was 65%. The pest or weed control at 560 g/ha ([3]; 336 h, 14 DAA) was 83%, the pest or weed control at 280 g/ha ([3]; 504 h, 21 DAA) was 75% and the pest or weed control at 560 g/ha ([3]; 504 h, 21 DAA) was 97%. The “% Control” value (Corn (ZEAMX); [7]) was 5%, the plant injury at 560 g/ha (Corn (ZEAMX); Trial Bridge 1, no mixing partner) was 5% and the plant injury at 1120 g/ha (Corn (ZEAMX); Trial Bridge 1, compound 1120 g ae/ha, no mixing partner) was 5%. It also gave a plant injury at 560 g/ha (Corn (ZEAMX); Trial Bridge 2, mixing partner none) of 5%, a plant injury at 560 g/ha (Corn (ZEAMX); [4]) of 10% and a plant injury at 1120 g/ha (Corn (ZEAMX); [7]) of 5%.
